Measurements: US20260055079A1, “PHTHALAZINONE COMPOUNDS AS PARP7 INHIBITORS” (AZKARRA THERAPEUTICS, INC., priority 2022, published 2026)

Target: His-GST-PARP7 (Homo sapiens (Human), UniProt Q7Z3E1)
Experiment: PARP7 biochemical assay
Details: not given

Sequence of His-GST-PARP7 (Q7Z3E1 whole entry): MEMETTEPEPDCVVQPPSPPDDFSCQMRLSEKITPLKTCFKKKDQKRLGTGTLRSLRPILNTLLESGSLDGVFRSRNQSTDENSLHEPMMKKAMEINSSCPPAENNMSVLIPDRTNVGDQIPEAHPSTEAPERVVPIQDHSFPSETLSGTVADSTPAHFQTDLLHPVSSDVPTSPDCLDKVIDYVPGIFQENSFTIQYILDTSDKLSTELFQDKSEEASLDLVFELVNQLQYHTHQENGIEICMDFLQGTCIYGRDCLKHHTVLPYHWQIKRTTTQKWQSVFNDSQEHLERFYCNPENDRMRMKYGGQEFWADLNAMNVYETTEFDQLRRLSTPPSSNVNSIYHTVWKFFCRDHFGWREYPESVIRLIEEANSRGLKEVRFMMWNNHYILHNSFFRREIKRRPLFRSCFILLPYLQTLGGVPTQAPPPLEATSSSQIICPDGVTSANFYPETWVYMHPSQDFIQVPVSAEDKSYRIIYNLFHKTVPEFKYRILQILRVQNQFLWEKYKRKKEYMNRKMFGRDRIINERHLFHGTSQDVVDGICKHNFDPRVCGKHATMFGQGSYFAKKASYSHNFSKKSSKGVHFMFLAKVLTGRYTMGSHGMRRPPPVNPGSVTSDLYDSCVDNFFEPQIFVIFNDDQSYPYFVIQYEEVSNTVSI

`O=C(C1CC1)N1C[C@H]2CC[C@@H](C1)N2C(=O)c1cc(Cc2n[nH]c(=O)c3ccc(OC4CCC4)cc23)ccc1F` [Example 112, 6-Cyclobutoxy-4-(3-(3-(cyclopropanecarbonyl)-3,8-diazabicyclo[3.2.1]octane-8-carbonyl)-4-fluorobenzyl)phthalazin-1(2H)-one] showed an IC50 of 100 to 500 nM.

Same assay, conditions: read-out: PARP7 IC50

Compared with `CN(C(=O)C1CCN1)C1CN(C(=O)c2cc(Cc3n[nH]c(=O)c4ccc(OC5CCC5)cc34)ccc2F)C1` (centres unmarked) [Example 117, N-(1-(5-((7-cyclobutoxy-4-oxo-3,4-dihydrophthalazin-1-yl)methyl)-2-fluorobenzoyl)azetidin-3-yl)-N-methylazetidine-2-carboxamide], `N#Cc1ccnc(N2CCN(C(=O)c3cc(Cc4n[nH]c(=O)c5ccc(OC6CCC6)cc45)cc4c3OCC4)CC2)c1` [Example 175, 2-(4-(5-((7-cyclobutoxy-4-oxo-3,4-dihydrophthalazin-1-yl)methyl)-2,3-dihydrobenzofuran-7-carbonyl)piperazin-1-yl)isonicotinonitrile] is lower in IC50: 500 to 2000 nM for the first, 50 to 100 nM for the second. The second is the more potent here.

Compared with `O=C(c1cc(Cl)cc(Cc2n[nH]c(=O)c3ccc(OC4CCC4)cc23)c1)N1CCN(c2ncc(C(F)(F)F)cn2)CC1` [Example 174, 4-(3-chloro-5-(4-(5-(trifluoromethyl)pyrimidin-2-yl)piperazine-1-carbonyl)benzyl)-6-cyclobutoxyphthalazin-1(2H)-one], `O=C(C1CC1)N1CCN(c2noc3ccc(Cc4n[nH]c(=O)c5ccc(OC6CCC6)cc45)cc23)CC1` [Example 210, 6-cyclobutoxy-4-((3-(4-(cyclopropanecarbonyl)piperazin-1-yl)benzo[d]isoxazol-5-yl)methyl)phthalazin-1(2H)-one] is higher in IC50: less than 50 nM for the first, 500 to 2000 nM for the second. The first is the more potent here.

Compared with `CN(C(=O)CC#N)C1CN(C(=O)c2cc(Cc3n[nH]c(=O)c4ccc(OC5CCC5)cc34)ccc2F)C1` [Example 118, 2-Cyano-N-(1-(5-((7-cyclobutoxy-4-oxo-3,4-dihydrophthalazin-1-yl)methyl)-2-fluorobenzoyl)azetidin-3-yl)-N-methylacetamide], `CNC(=O)c1ccnc(N(C)C2CN(C(=O)c3cc(Cc4n[nH]c(=O)c5ccc(OC6CCC6)cc45)ccc3F)C2)n1` [Example 108, 2-((1-(5-((7-cyclobutoxy-4-oxo-3,4-dihydrophthalazin-1-yl)methyl)-2-fluorobenzoyl)azetidin-3-yl)(methyl)amino)-N-methylpyrimidine-4-carboxamide] is lower in IC50: 500 to 2000 nM for the first, 100 to 500 nM for the second.

`O=C(c1cc(Cc2n[nH]c(=O)c3ccc(OC4CCC4)cc23)ccc1F)N1CC(Nc2ncc(C(F)(F)F)cn2)C1` [Example 102, 6-Cyclobutoxy-4-(4-fluoro-3-(3-((5-(trifluoromethyl)pyrimidin-2-yl)amino)azetidine-1-carbonyl)benzyl)phthalazin-1(2H)-one] and `O=C(c1cc(Cc2n[nH]c(=O)c3ccc(OC4CCC4)cc23)ccc1F)N1CCC2C1CCN2c1ncc(C(F)(F)F)cn1` (centres unmarked) [Example 103, 6-Cyclobutoxy-4-(4-fluoro-3-(4-(5-(trifluoromethyl)pyrimidin-2-yl)octahydropyrrolo[3,2-b]pyrrole-1-carbonyl)benzyl)phthalazin-1(2H)-one] fall in the same range of IC50: 50 to 100 nM for the first, 50 to 100 nM for the second.

`COCc1nnc2n1CCN(C(=O)c1cc(Cc3n[nH]c(=O)c4ccc(OC5CCC5)cc34)ccc1F)C2` [Example 167, 6-Cyclobutoxy-4-(4-fluoro-3-(3-(methoxymethyl)-5,6,7,8-tetrahydro-[1,2,4]triazolo[4,3-a]pyrazine-7-carbonyl)benzyl)phthalazin-1(2H)-one] and “6-(3-(5-((7-Cyclobutoxy-4-oxo-3,4-dihydrophthalazin-1-yl)methyl)-2-fluorobenzoyl)-3,8-diazabicyclo[3.2.1]octan-8-yl)nicotinonitrile [Example 99]” cannot be ordered by IC50: less than 50 nM for the first, less than 50 nM for the second.

`CN(C(=O)CCC(F)(F)F)C1CN(C(=O)c2cc(Cc3n[nH]c(=O)c4ccc(OC5CCC5)cc34)ccc2F)C1` [Example 114, N-(1-(5-((7-cyclobutoxy-4-oxo-3,4-dihydrophthalazin-1-yl)methyl)-2-fluorobenzoyl)azetidin-3-yl)-4,4,4-trifluoro-N-methylbutanamide] and `O=C(c1cc(Cc2n[nH]c(=O)c3ccc(OC4CCC4)cc23)ccc1F)N1C[C@@H]2CC[C@H]1CN2C(=O)C1CC1` (stereo in doubt) [Example 142, 6-Cyclobutoxy-4-(3-(5-(cyclopropanecarbonyl)-2,5-diazabicyclo[2.2.2]octane-2-carbonyl)-4-fluorobenzyl)phthalazin-1(2H)-one] fall in the same range of IC50: 100 to 500 nM for the first, 100 to 500 nM for the second.

Compared with `O=C(c1cc(Cc2n[nH]c(=O)c3ccc(OC4CCC4)cc23)ccc1F)N1CCn2c(nnc2C(F)F)C1` [Example 163, 6-Cyclobutoxy-4-(3-(3-(difluoromethyl)-5,6,7,8-tetrahydro-[1,2,4]triazolo[4,3-a]pyrazine-7-carbonyl)-4-fluorobenzyl)phthalazin-1(2H)-one], `CC#Cc1ccc2c(=O)[nH]nc(Cc3ccc(F)c(C(=O)N4CCn5c(nnc5-c5ccccc5CC)C4)c3)c2c1` [Example 59, 4-(3-(3-(2-Ethylphenyl)-5,6,7,8-tetrahydro-[1,2,4]triazolo[4,3-a]pyrazine-7-carbonyl)-4-fluorobenzyl)-6-(prop-1-ynyl)phthalazin-1(2H)-one] is higher in IC50: less than 50 nM for the first, 100 to 500 nM for the second.

`O=c1[nH]nc(Cc2cccc3c(N4CCN(c5ncc(C(F)(F)F)cn5)CC4)noc23)c2cc(OC3CCC3)ccc12` [Example 207, 6-Cyclobutoxy-4-((3-(4-(5-(trifluoromethyl)pyrimidin-2-yl)piperazin-1-yl)benzo[d]isoxazol-7-yl)methyl)phthalazin-1(2H)-one] and `O=c1[nH]nc(Cc2ccc3c(N4CCN(c5ncc(C(F)(F)F)cn5)CC4)noc3c2)c2cc(OC3CCC3)ccc12` [Example 212, 6-Cyclobutoxy-4-((3-(4-(5-(trifluoromethyl)pyrimidin-2-yl)piperazin-1-yl)benzo[d]isoxazol-6-yl)methyl)phthalazin-1(2H)-one] cannot be ordered by IC50: greater than 2000 nM for the first, greater than 2000 nM for the second.

`CN(c1cc(C#N)ccn1)C1CN(S(=O)(=O)c2cc(Cc3n[nH]c(=O)c4ccc(OC5CCC5)cc34)ccc2F)C1` [Example 189, 2-((1-((5-((7-cyclobutoxy-4-oxo-3,4-dihydrophthalazin-1-yl)methyl)-2-fluorophenyl)sulfonyl)azetidin-3-yl)(methyl)amino)isonicotinonitrile] and `O=C(c1cc(Cc2n[nH]c(=O)c3ccc(OC4CCC4)cc23)ccc1F)N1CC2CN(C(=O)C3CC3)CC2C1` (centres unmarked) [Example 119, 6-Cyclobutoxy-4-(3-(5-(cyclopropanecarbonyl)octahydropyrrolo[3,4-c]pyrrole-2-carbonyl)-4-fluorobenzyl)phthalazin-1(2H)-one] fall in the same range of IC50: 500 to 2000 nM for the first, 500 to 2000 nM for the second.

Compared with `CC#Cc1ccc2c(=O)[nH]nc(Cc3ccc(F)c(C(=O)N4C[C@@H]5C[C@H]4CN5c4ccc(C#N)cn4)c3)c2c1` [Example 68, 6-((1S,4S)-5-(2-fluoro-5-((4-oxo-7-(prop-1-ynyl)-3,4-dihydrophthalazin-1-yl)methyl)benzoyl)-2,5-diazabicyclo[2.2.1]heptan-2-yl)nicotinonitrile], `N#Cc1ccc(N2CCN(c3noc4cc(Cc5n[nH]c(=O)c6ccc(OC7CCC7)cc56)ccc34)CC2)nc1` [Example 214, 6-(4-(6-((7-Cyclobutoxy-4-oxo-3,4-dihydrophthalazin-1-yl)methyl)benzo[d]isoxazol-3-yl)piperazin-1-yl)nicotinonitrile] is higher in IC50: 500 to 2000 nM for the first, greater than 2000 nM for the second.

First: CN(c1cncc(C#N)n1)C1CN(C(=O)c2cc(Cc3n[nH]c(=O)c4ccc(OC5CCC5)cc34)ccc2F)C1 [Example 116, 6-((1-(5-((7-Cyclobutoxy-4-oxo-3,4-dihydrophthalazin-1-yl)methyl)-2-fluorobenzoyl)azetidin-3-yl)(methyl)amino)pyrazine-2-carbonitrile]
Second: O=C(c1cccc(Cc2n[nH]c(=O)c3ccc(OC4CCC4)cc23)c1Cl)N1CCN(c2ncc(C(F)(F)F)cn2)CC1 [Example 171, 4-(2-Chloro-3-(4-(5-(trifluoromethyl)pyrimidin-2-yl)piperazine-1-carbonyl)benzyl)-6-cyclobutoxyphthalazin-1(2H)-one]
The IC50 of the first is higher: 100 to 500 nM for the first, 50 to 100 nM for the second.

First: N#Cc1ccc(NC2CN(C(=O)c3cc(Cc4n[nH]c(=O)c5ccc(OC6CCC6)cc45)ccc3F)C2)nc1 [Example 104, 6-((1-(5-((7-Cyclobutoxy-4-oxo-3,4-dihydrophthalazin-1-yl)methyl)-2-fluorobenzoyl)azetidin-3-yl)amino)nicotinonitrile]
Second: O=C(c1ccc(Cc2n[nH]c(=O)c3ccc(OC4CCC4)cc23)cc1F)N1CCN(c2ncc(C(F)(F)F)cn2)CC1 [Example 172, 6-Cyclobutoxy-4-(3-fluoro-4-(4-(5-(trifluoromethyl)pyrimidin-2-yl)piperazine-1-carbonyl)benzyl)phthalazin-1(2H)-one]
The IC50 of the first is lower: 50 to 100 nM for the first, greater than 2000 nM for the second.

Compared with `O=C(c1cc(Cc2n[nH]c(=O)c3ccc(OC4CCC4)cc23)ccc1F)N1C[C@H]2CC[C@@H](C1)N2c1ncc(C(F)(F)F)cn1` [Example 100, 6-Cyclobutoxy-4-(4-fluoro-3-(8-(5-(trifluoromethyl)pyrimidin-2-yl)-3,8-diazabicyclo[3.2.1]octane-3-carbonyl)benzyl)phthalazin-1(2H)-one], `N#Cc1ccc(N2C[C@H]3C[C@@H]2CN3C(=O)c2cccc(Cc3n[nH]c(=O)c4ccc(-c5cccnc5)cc34)c2)nc1` (stereo in doubt) [Example 184, 6-(5-(3-((4-Oxo-7-(pyridin-3-yl)-3,4-dihydrophthalazin-1-yl)methyl)benzoyl)-2,5-diazabicyclo[2.2.1]heptan-2-yl)nicotinonitrile] is higher in IC50: less than 50 nM for the first, 100 to 500 nM for the second.

First: N#Cc1ccnc(NC2CN(C(=O)c3cc(Cc4n[nH]c(=O)c5ccc(OC6CCC6)cc45)ccc3F)C2)c1 [Example 106, 2-(1-(5-((7-Cyclobutoxy-4-oxo-3,4-dihydrophthalazin-1-yl)methyl)-2-fluorobenzoyl)azetidin-3-ylamino)isonicotinonitrile]
Second: COc1c(Oc2ccccc2)ccc2c(=O)[nH]nc(Cc3ccc(F)c(C(=O)N4CCN(c5ccc(C#N)cn5)CC4)c3)c12 [Example 89, 6-(4-(2-Fluoro-5-((8-methoxy-4-oxo-7-phenoxy-3,4-dihydrophthalazin-1-yl)methyl)benzoyl)piperazin-1-yl)nicotinonitrile]
The IC50 of the first is higher: 100 to 500 nM for the first, 50 to 100 nM for the second.
